# Patent publication US10195282B2, “Use of alginate formulation for intraincisional drug delivery” (UNIVERSITY OF SOUTHERN CALIFORNIA, priority 2014, dated 2019)
# Non-standard residues stand in square brackets, D forms with d. Residues, ends and D or L forms follow the SMILES beside them. Nle = CCCC[C@H](N)C(=O)O
# System: full thickness incision wounds in a rat model
# Assay: Scar formation dose-response of NorLeu3-A(1-7) in 2.5% alginate crosslinked with 5 mM CaCl2 (Example 3)
# Assay type: in vivo, Sprague Dawley rats
# Settings: 1 mg/ml in the formulation; compared with surgical and vehicle controls; day 21
# Description: This example was designed to determine the formation and remodeling of scar by clinical and histological evaluations in full thickness incision wounds in a rat model. Various doses of active ingredient were delivered in 2.5% alginate crosslinked with 5 mM CaCl2. • Species: • Sprague Dawley • Female (n=5/group for histology; 3/group for tensile strength) • Parameters Measured: • Appearance of Healing Wound (Gross and Histological of Dense Collagen by Image J) • Tensile Strength • Central, Blinded Adjudication of Photos on Day 21 • Photographic serial imaging • Experimental Groups: Surgical control, vehicle (2.5% alginate crosslinked with 5 mM CaCl2) and 2.5% alginate crosslinked with 5 mM CaCl2 with 0.3, 1, 3 or 5 mg/ml DSC127) Methods
# Alginate was supplied by FMC BioPolymer. […]
# During the experimental period, Sprague Dawley rats, 200-225 grams, were housed one per cage and maintained in a central animal care facility with a 12-hour light/dark cycle. […] The six tests groups that were evaluated are: surgical control, vehicle control and 30, 100, 300 or 500 μg/wound of NorLeu3-A(1-7) in the vehicle. […] The animals were monitored for breathing, urination and movement during the postoperative interval. […] During the first two weeks after surgery, scabbing, dehiscence and inflammation were assessed. […]
# Scabbing was assessed on a 4-point scale (0,1,2,3) for none, mild, moderate and severe, respectively. […]
structure (smiles),measurement,value
"CCCC[C@H](NC(=O)[C@H](CCCNC(=N)N)NC(=O)[C@@H](N)CC(=O)O)C(=O)N[C@@H](Cc1ccc(O)cc1)C(=O)N[C@H](C(=O)N[C@@H](Cc1c[nH]cn1)C(=O)N1CCC[C@H]1C(=O)O)[C@@H](C)CC [NorLeu3-A(1-7), Asp-Arg-Nle-Tyr-Ile-His-Pro] (H-DR[Nle]YIHP-OH; N-terminus and C-terminus assumed)",Inflammation at the site of the incision scored on histological sections,trend towards reduced inflammation
